Reference: ChEMBL document CHEMBL1201862, “PubChem BioAssay data set” (2004)
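All cell lines were grown in 96-well plates and treated with compound for 48 hours. GI50 marks 50% less growth.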 The source made the active and inactive calls. Cut-off read from the data, not from the text of the source: active = GI50 up to about 1.1 µM and inactive = higher.

Key:
Experiment in all cases: DTP human tumour cell line panel, 48 h
SF-295 = tested on: SF-295
MDA-MB-435 = tested on: MDA-MB-435
EKVX = tested on: EKVX
NCI-H522 = tested on: NCI-H522
HCT-15 = tested on: HCT-15
OVCAR-4 = tested on: OVCAR-4
KM12 = tested on: KM12
BT-549 = tested on: BT-549
HCT-116 = tested on: HCT-116
A498 = tested on: A498
MOLT-4 = tested on: MOLT-4
CAKI-1 = tested on: CAKI-1
UO-31 = tested on: UO-31
Hs-578T = tested on: Hs-578T
T47D = tested on: T47D
CCRF-CEM = tested on: CCRF-CEM
SN12C = tested on: SN12C
DU-145 = tested on: DU-145
Malme-3M = tested on: Malme-3M
NCI-H460 = tested on: NCI-H460

SMILES | GI50 (SF-295) | GI50 (MDA-MB-435) | GI50 (EKVX) | GI50 (NCI-H522) | GI50 (HCT-15) [µM] | GI50 (OVCAR-4) | GI50 (KM12) | GI50 (BT-549) | GI50 (HCT-116) | GI50 (A498) | GI50 (MOLT-4) | GI50 (CAKI-1) | GI50 (UO-31) | GI50 (Hs-578T) | GI50 (T47D) | GI50 (CCRF-CEM) | GI50 (SN12C) | GI50 (DU-145) | GI50 (Malme-3M) | GI50 (NCI-H460)
COC(=O)CCC1(C)C2CCC1/C(=N/O)C2 (stereo unspecified) | > 100 µM (inactive) | > 100 µM (inactive) | > 100 µM (inactive) | > 100 µM (inactive) | > 100 | > 100 µM (inactive) | > 100 µM (inactive) | > 100 µM (inactive) | > 100 µM (inactive) | > 100 µM (inactive) | > 100 µM (inactive) | > 100 µM (inactive) | > 100 µM (inactive) | > 100 µM (inactive) | > 100 µM (inactive) | > 100 µM (inactive) | > 100 µM (inactive) | > 100 µM (inactive) | > 100 µM (inactive) | 
CCCCCC(/C=N/NC(N)=S)C(O)(C(F)(F)F)C(F)(F)F (stereo unspecified) | > 10 µM (inactive) | > 10 µM (inactive) | > 10 µM (inactive) | > 10 µM (inactive) | > 10 | > 10 µM (inactive) | > 10 µM (inactive) | > 10 µM (inactive) | > 10 µM (inactive) | > 10 µM (inactive) | > 10 µM (inactive) | > 10 µM (inactive) |  | > 10 µM (inactive) | > 10 µM (inactive) | > 10 µM (inactive) | > 10 µM (inactive) | > 10 µM (inactive) | > 10 µM (inactive) | > 10 µM (inactive)
CN1CCN(CCCNN)CC1 | > 100 µM (inactive) | > 100 µM (inactive) | > 100 µM (inactive) | > 100 µM (inactive) | > 100 | > 100 µM (inactive) | > 100 µM (inactive) | > 100 µM (inactive) | > 100 µM (inactive) | > 100 µM (inactive) | 0.305 µM (active) | > 100 µM (inactive) | > 100 µM (inactive) | > 100 µM (inactive) | > 100 µM (inactive) |  | > 100 µM (inactive) | > 100 µM (inactive) |  | > 100 µM (inactive)
C=C(C)[C@@]1(O)O[C@H]2C[C@@]3(C)OC(=CC3=O)/C(C)=C\[C@@H]3OC(=O)[C@@]1(C)[C@H]32 | 23.7 µM (inactive) | 14.7 µM (inactive) | 29.2 µM (inactive) | 3.61 µM (inactive) | 9.25 | 20.7 µM (inactive) | 15.1 µM (inactive) | 8.89 µM (inactive) | 7.64 µM (inactive) |  | 7.8 µM (inactive) | 19.6 µM (inactive) | 30.1 µM (inactive) | 45.8 µM (inactive) | 21.3 µM (inactive) | 3.94 µM (inactive) | 15 µM (inactive) | 37.7 µM (inactive) | 18.5 µM (inactive) | 22.8 µM (inactive)
COc1ccc(NC(=O)CC(=O)n2nc(C)c(/N=N/c3ccc(C)c(C)c3)c2C)cc1 | 54.7 µM (inactive) | > 100 µM (inactive) | 15.1 µM (inactive) | > 100 µM (inactive) |  | > 100 µM (inactive) | > 100 µM (inactive) | > 100 µM (inactive) | > 100 µM (inactive) | 63.8 µM (inactive) | 78.3 µM (inactive) | > 100 µM (inactive) | 24.5 µM (inactive) | 25.2 µM (inactive) | 64.7 µM (inactive) | > 100 µM (inactive) | > 100 µM (inactive) | > 100 µM (inactive) | > 100 µM (inactive) | > 100 µM (inactive)
O=C(NCc1ccccc1)c1nn[nH]c1O | > 100 µM (inactive) | > 100 µM (inactive) | > 100 µM (inactive) | > 100 µM (inactive) | > 100 | > 100 µM (inactive) | > 100 µM (inactive) | > 100 µM (inactive) | > 100 µM (inactive) |  | > 100 µM (inactive) | > 100 µM (inactive) | > 100 µM (inactive) | > 100 µM (inactive) | > 100 µM (inactive) | > 100 µM (inactive) | > 100 µM (inactive) | > 100 µM (inactive) | > 100 µM (inactive) | > 100 µM (inactive)
O=C(O)CCNc1[nH]cnc2ncnc1-2 | > 100 µM (inactive) | > 100 µM (inactive) | > 100 µM (inactive) | > 100 µM (inactive) | > 100 | > 100 µM (inactive) | > 100 µM (inactive) | > 100 µM (inactive) | > 100 µM (inactive) | > 100 µM (inactive) |  | > 100 µM (inactive) | > 100 µM (inactive) | > 100 µM (inactive) | > 100 µM (inactive) | > 100 µM (inactive) | > 100 µM (inactive) | > 100 µM (inactive) | > 100 µM (inactive) | > 100 µM (inactive)
COc1cccc(-c2nc(O)c3ccccc3n2)c1OC | > 100 µM (inactive) | > 100 µM (inactive) | > 100 µM (inactive) |  | > 100 | > 100 µM (inactive) | > 100 µM (inactive) | > 100 µM (inactive) | > 100 µM (inactive) | > 100 µM (inactive) | > 100 µM (inactive) | > 100 µM (inactive) | > 100 µM (inactive) | > 100 µM (inactive) | > 100 µM (inactive) | > 100 µM (inactive) | > 100 µM (inactive) | > 100 µM (inactive) | > 100 µM (inactive) | > 100 µM (inactive)
